For the test, the system named is hippocampal slices incubated with Aβ oligomers. As to the kind of experiment: Electrophysiology (LTP) in hippocampal slices incubated with Aβ oligomers. It is filed as cell-based, C57bl6 male mice. How it is done:
Hippocampal slices were prepared according to standard procedures previously described. Briefly, transverse slices (350 μm) from the dorsal hippocampus were cut under cold artificial cerebrospinal fluid (ACSF, in mM: 124 NaCl, […], 10 D-glucose, 2.69 KCl, 1.25 KH2PO4 2.5 CaCl2, 1.3 MgSO4, and 2.60 NaHPO4) using a Vibratome (Leica VT 1000 s, Germany) and incubated in ACSF for 1 h at room temperature. In all experiments, 10 μM picrotoxin (PTX) was added to suppress inhibitory GABAA transmission. Slices were transferred to an experimental chamber (2 mL), superfused (3 mL/min, at 20-22° C.) with gassed ACSF and visualized by trans-illumination with a binocular microscope (MSZ-10, Nikon, Melville, N.Y.). To evoke field excitatory postsynaptic potentials (fEPSPs), we stimulate with bipolar concentric electrodes (Platinum/Iridium, 125 μm OD diameter, FHC Inc., Bowdoin, Me.) generated by a stimulator (Axon 700b, Molecular Devices, Sunnyvale, Calif.) and connected to an isolation unit (Isoflex, AMPI, Jerusalem, Israel). The stimulation was in the Stratum Radiatum within 100-200 μm from the recording site. The paired pulse facilitation index was calculated by ((R2−R1)/R1), where R1 and R2 were the peak amplitudes of the first and second fEPSP respectively. To generate LTP we used Theta Burst Stimulation (TBS) consisting of 5 trains of stimulus with an inter-train interval of 20 s. Each train consisted of 10 bursts at 5 Hz and each burst having 4 pulses at 100 Hz. To generate LTD we used Low Frequency Stimulation (LFS) consisting in 900 paired pulses at 1 Hz. […] Evoked postsynaptic responses were analyzed off-line, using an analysis software (pClampfit, Molecular Devices), which allowed visual detection of events, computing only those events that exceeded and arbitrary threshold.
Electrophysiological registers of hippocampal slices of 2-month-old C57bl6 male mice were assessed to evaluate the synaptic transmission through the long-term potentiation (LTP). […] In FIG. 3B, the quantification at min 60 of fEPSP are shown. […]

Where [1] appears, read: slices with Aβ oligomers, FIG. 3A.

Counter-ions that a name gives are not always drawn.

In the case of `CC1=C[C@H]2Cc3nc4cc(Cl)ccc4c(NCCCCCCCCCNC(=O)c4cc(O)c5c(c4)C(=O)c4cccc(O)c4C5=O)c3[C@@H](C1)C2` [(+)-(Ib)•HCl, (+)-(7R,11R)—N-{9-[(3-chloro-6,7,10,11-tetrahydro-9-methyl-7,11-methanocycloocta[b]quinolin-12-yl)amino]nonyl}-9,10-dihydro-4,5-dihydroxy-9,10-dioxoanthracene-2-carboxamide], where the note is “compared to slices treated with Aβ oligomers, FIG. 3B”, the “fEPSP magnitude response at min 60” value was determined as 200%. Moreover, the LTP induction under setting [1] was 200%. With `CC1=C[C@@H]2Cc3nc4cc(Cl)ccc4c(NCCCCCCCCCNC(=O)c4cc(O)c5c(c4)C(=O)c4cccc(O)c4C5=O)c3[C@H](C1)C2` [(−)-(Ib)•HCl, (−)-(7S,11S)—N-{9-[(3-chloro-6,7,10,11-tetrahydro-9-methyl-7,11-methanocycloocta[b]quinolin-12-yl)amino]nonyl}-9,10-dihydro-4,5-dihydroxy-9,10-dioxoanthracene-2-carboxamide], the “LTP induction (in words)” value under setting [1] is “no LTP induction”.

(Values after patent US9238626B2 (priority 2012, dated 2016).)
